Consider 26 compounds from ChEMBL document CHEMBL1131576, “7-Oxo-4,5,6,7-tetrahydro-1H-pyrazolo[3,4-c]pyridines as novel inhibitors of human eosinophil phosphodiesterase” (J Med Chem, 1998).

SMILES strings stand for the structures.

In one data set the target is Phosphodiesterase 4 (Homo sapiens, UniProt P27815+Q08499+Q07343+Q08493). Kind of data set: Inhibitory activity on human eosinophil phosphodiesterase 4. Format: protein assay.
The next data set deals with U-937. Kind of data set: Arbitary maximal response for cAMP elevation from baseline level was evaluated in Human U-937 cells. The format is functional, cell-based.
In data set [1] the test system is Monkey. Kind of data set: Percent Eosinophil inhibition in monkeys at 10 mg/kg oral dose. The settings on record: Cercopithecidae, in Primates. Format: functional.
A short description of data set [2]: Compound tested for plasma levels in monkeys dosed at 10 mg/kg, po. Format: ADME, organism-based. On the set-up: dose 10 mg/kg, route oral. The settings on record: monkey, in vivo, read-out: Plasma level.
Data set [3] concerns Monkey. Kind of data set: Percent cytokine IL-8 inhibition in monkeys at 10 mg/kg oral dose. Format: functional. The settings on record: Cercopithecidae, in Primates.
Data set [4] concerns Monkey. Put plainly: Percent cytokine TNF inhibition in monkeys at 10 mg/kg oral dose. The format is functional. The settings on record: Cercopithecidae, in Primates.
The subject of another data set is Cavia porcellus. Kind of data set: Effect on Aerosolized Antigen Induced Airway Obstruction (AAIAO) in guinea pig after oral dose. The format is functional.
For data set [5], the target named is cGMP-specific 3',5'-cyclic phosphodiesterase (Homo sapiens) (UniProt O76074). Put plainly: Inhibition of Phosphodiesterase 5 from human corpus cavernosum at 1 uM.
Data set [6] addresses Phosphodiesterase 1 (Homo sapiens) (UniProt P54750+Q01064+Q14123). Put plainly: Inhibition of Phosphodiesterase 1 from human cardiac ventricle at 10 uM. Format: protein assay.
Data set [7] addresses Phosphodiesterase 3 (Homo sapiens) (UniProt Q14432+Q13370). Put plainly: Inhibition of PDE3 from human heart at 100 uM. The format is protein assay.
The target of data set [8] is cGMP-specific 3',5'-cyclic phosphodiesterase (Homo sapiens) (UniProt O76074). Kind of data set: Inhibition of Phosphodiesterase 5 from human corpus cavernosum at 10 uM.
The test system of data set [9] is Monkey. Put plainly: Percent cytokine inhibition in monkeys at 10 mg/kg oral dose. The format is functional. The settings on record: Cercopithecidae, in Primates.

Broadly, the IC50 is the concentration needed to halve the response being measured. As a reminder, the EC50 is the midpoint of the concentration-response curve. Usually inhibition in vivo stands for how much of the control response was suppressed. The term ED50 denotes the midpoint of the dose-response relation. By inhibition is commonly meant the percentage by which the read-out fell short of the control.

As for `CCc1nn(C2CCCC2)c2c1CCN(c1ccsc1)C2=O`, the IC50 against Phosphodiesterase 4 was determined as 660 nM. For the same compound, a half-maximal effect in the data set on U-937 (EC50) was put at 36 nM.

On Phosphodiesterase 4, `CCCCc1nn(-c2ccc(F)cc2)c2c1CCN(c1ccccc1)C2=O` yielded an IC50 of 84700 nM. The EC50 in the data set on U-937 is 13000 nM.

In the case of `CCc1nn(C2CCCC2)c2c1CCN(Cc1ccccc1)C2=O`, at Phosphodiesterase 4, the IC50 was found to be 420 nM. In the data set on U-937, the EC50 came out at 36 nM.

Take `CCc1nn(C2CCC2)c2c1CCN(c1cccc(OC)c1)C2=O`: the concentration for half-maximal inhibition (IC50) against Phosphodiesterase 4 is 150 nM. This compound had an EC50 in the data set with U-937 of 520 nM.

In turn, `CCc1nn(-c2ccc(F)cc2)c2c1CCN(c1cccc(OC)c1)C2=O` registered an IC50 against Phosphodiesterase 4 of 490 nM.

Regarding `COc1ccc(C2CNC(=O)C2)cc1OC1CCCC1` (stereo not drawn) [ROLIPRAM], the figures for the inhibition in vivo at 10 mg/kg in the data set on Monkey [1], with Monkey [3] and in the data set with Monkey [4] were 49.4%, 84% and 33.4%, respectively. Moreover, the concentration in [2] stood at 910 nM. In the data set on Cavia porcellus, this compound displayed an ED50 of 0.6 mg/kg. It took 1230 nM to reach a half-maximal effect in the data set with U-937 (EC50).

As for `CCc1nn(-c2ccc(F)cc2)c2c1CCN(c1ccccc1C)C2=O`, on Phosphodiesterase 4, the IC50 came to 890 nM.

Take `CCc1nn(-c2ccc(F)cc2)c2c1CCN(c1ccc(C)cc1)C2=O`: the half-maximal inhibitory concentration (IC50) against Phosphodiesterase 4 came out at 2240 nM. In addition, a half-maximal effect with U-937 (EC50) was put at 500 nM.

In the data set with U-937, `COc1ccc(C(=O)Nc2c(Cl)cncc2Cl)cc1OC1CCCC1` yielded an EC50 of 40 nM.

Consider `COc1ccc([C@H](Cc2ccncc2)c2ccccc2)cc1OC1CCCC1` [CDP840], for which the IC50 on Phosphodiesterase 4 is 670 nM. In the data set on U-937, this compound gave an EC50 of 290 nM.

At Phosphodiesterase 4, `CCc1nn(-c2ccc(F)cc2)c2c1CCN(c1cccc(C)c1)C2=O` came in with an IC50 of 270 nM. In the data set on U-937, this compound registered an EC50 of 780 nM.

For `CCCc1nn(-c2ccc(F)cc2)c2c1CCN(c1ccc(OC)cc1)C2=O`, the IC50 against Phosphodiesterase 4 worked out at 84900 nM. In the data set on U-937, this compound yielded an EC50 of 11000 nM.

`CCc1nn(-c2ccc(F)cc2)c2c1CCN(c1ccccc1OC)C2=O` had an IC50 at Phosphodiesterase 4 of 1080 nM. The same compound displayed an EC50 in the data set with U-937 of 3210 nM.

`CCc1nn(C2CCCC2)c2c1CCN(c1cccnc1)C2=O` had an IC50 against Phosphodiesterase 4 of 160 nM. Besides, in the data set with U-937, the response was half-maximal at 17 nM (EC50).

For the compound `CCc1nn(C2CCS(=O)(=O)C2)c2c1CCN(c1cccc(OC)c1)C2=O` (stereo not drawn), the IC50 against Phosphodiesterase 4 was 460 nM. The EC50 with U-937 worked out at 5270 nM.

As for `COc1ccc([C@]2(C#N)CC[C@@H](C(=O)O)CC2)cc1OC1CCCC1` [CILOMILAST], in the data set with U-937, the EC50 is 3630 nM.

Regarding `CCc1nn(C2CCCC2)c2c1CCN(c1ccccn1)C2=O`, on Phosphodiesterase 4, the IC50 was 1640 nM.

In the case of `CCc1nn(C2CCCC2)c2c1CCN(c1cccs1)C2=O`, the IC50 at Phosphodiesterase 4 was 63 nM. This compound also returned an EC50 with U-937 of 1 nM.

In turn, `CCc1nn(C2CCCCC2)c2c1CCN(c1cccc(OC)c1)C2=O` returned a 50% inhibitory concentration (IC50) against Phosphodiesterase 4 of 48 nM. The same compound yielded an EC50 in the data set on U-937 of 980 nM.

Regarding `CCc1nn(-c2ccc(F)cc2)c2c1CCN(c1ccc(OC)cc1)C2=O`, the IC50 on Phosphodiesterase 4 was determined as 6040 nM. In the data set on U-937, this compound gave an EC50 of 6250 nM.

In the case of `CCc1nn(C2CCCC2)c2c1CCN(c1cccc(Cl)c1)C2=O`, the IC50 on Phosphodiesterase 4 came out at 39 nM. Moreover, a half-maximal response with U-937 (EC50) required 41 nM.

For `CCc1nn(-c2ccc(F)cc2)c2c1CCN(c1ccccc1)C2=O`, the inhibition in [5] came to 1%; in [6], 2%; in [7] it was 33%; in data set [8], 50%. At Phosphodiesterase 4, this compound showed an IC50 of 1640 nM. It took a dose of 4.3 mg/kg to reach the 50% effect level with Cavia porcellus (ED50). The compound also had an EC50 in the data set with U-937 of 880 nM.

In the case of `COc1ccc(N2CCc3c(C)nn(-c4ccc(F)cc4)c3C2=O)cc1`, the IC50 against Phosphodiesterase 4 came to 15700 nM.

Take `CCc1nn(C2CCCC2)c2c1CCN(c1ccccc1C)C2=O`: the inhibition in vivo at 10 mg/kg was 55.2% in the data set on Monkey [1] and 82.1% with Monkey [9]. Moreover, in [2], the concentration was determined as 280 nM. Moreover, the inhibition came to 7% in data set [5], 8% in data set [6], 9% in data set [7] and 21% in data set [8]. The compound also gave an IC50 against Phosphodiesterase 4 of 440 nM. Further, in the data set with Cavia porcellus, the ED50 is 2 mg/kg. In the data set with U-937, this compound yielded an EC50 of 330 nM.

For the compound `CCc1nn(C2CCCC2)c2c1CCN(c1ccccc1)C2=O`, the IC50 against Phosphodiesterase 4 stood at 160 nM. Besides, in the data set with U-937, the EC50 turned out to be 70 nM.

Take `CCc1nn(C2CCCC2)c2c1CCN(c1cccc(OC)c1)C2=O`: at Phosphodiesterase 4, the IC50 stood at 34 nM. The midpoint of the response in the data set with U-937, the EC50, lay at 330 nM.
